The record followed here is US7396830B2, “Piperazine amidines as antiviral agents” (priority 2005, dated 2008).

This assay deals with HIV-1. Description: Single-round infectious HIV-1 luciferase reporter virus infection of HeLa CD4 cells. As to conditions: Human immunodeficiency virus 1, HeLa, 72 h, read-out: EC50 Group from Table 1. In kind it is cell-based. As for the experimental part: • Virus production—Human embryonic Kidney cell line, 293T, was propagated in Dulbecco's Modified Eagle Medium (Invitrogen, Carlsbad, Calif.) containing 10% fetal Bovine serum (FBS, Sigma, St. Louis, Mo.). • Virus infection—Human epithelial cell line, HeLa, expressing the HIV-1 receptor CD4 was propagated in Dulbecco's Modified Eagle Medium (Invitrogen, Carlsbad, Calif.) containing 10% fetal Bovine serum (FBS, Sigma, St. Louis , Mo.) and supplemented with 0.2 mg/mL Geneticin (Invitrogen, Carlsbad, Calif.). Virus-Single-round infectious reporter virus was produced by co-transfecting human embryonic Kidney 293 cells with an HIV-1 envelope DNA expression vector and a proviral cDNA containing an envelope deletion mutation and the luciferase reporter gene inserted in place of HIV-1 nef sequences (Chen et al, Ref. 41). Transfections were performed using lipofectAMINE PLUS reagent as described by the manufacturer (Invitrogen, Carlsbad, Calif.). Experiment • 1. HeLa CD4 cells were plated in 96 well plates at a cell density of 1×10^4 cells per well in 100 μl Dulbecco's Modified Eagle Medium containing 10% fetal Bovine serum and incubated overnight. • 2. Compound was added in a 2 μl dimethylsulfoxide solution, so that the final assay concentration would be ≦10 μM. • 3. 100 μl of single-round infectious reporter virus in Dulbecco's Modified Eagle Medium was then added to the plated cells and compound at an approximate multiplicity of infection (MOI) of 0.01, resulting in a final volume of 200 μl per well. • 4. Virally-infected cells were incubated at 37 degrees Celsius, in a CO2 incubator, and harvested 72 h after infection. • 5. Viral infection was monitored by measuring luciferase expression from viral DNA in the infected cells using a luciferase reporter gene assay kit, as described by the manufacturer (Roche Molecular Biochemicals, Indianapolis, Ind.). Infected cell supernatants were removed and 50 μl of lysis buffer was added per well. After 15 minutes, 50 μl of freshly-reconstituted luciferase assay reagent was added per well. Luciferase activity was then quantified by measuring luminescence using a Wallac microbeta scintillation counter. • 6. The percent inhibition for each compound was calculated by quantifying the level of luciferase expression in cells infected in the presence of each compound as a percentage of that observed for cells infected in the absence of compound and subtracting such a determined value from 100. • 7. An EC50 provides a method for comparing the antiviral potency of the compounds of this disclosure. The effective concentration for fifty percent inhibition (EC50) was calculated with the Microsoft Excel Xlfit curve fitting software. For each compound, curves were generated from percent inhibition calculated at 10 different concentrations by using a four paramenter logistic model (model 205). Table 1 is the key for the data in Table 2. Results
As for `N=C(c1ccccc1)N1CCN(C(=O)C(=O)c2c[nH]c3cccc(F)c23)CC1` [AM-01, 1-(4-fluoro-1H-indol-3-yl)-2-(4-(imino(phenyl)methyl)piperazin-1-yl)ethane-1,2-dione], the EC50 is less than 500 nM.

As to `N#C/N=C(\c1ccccc1)N1CCN(C(=O)C(=O)c2c[nH]c3cccc(F)c23)CC1` [AM-02], the EC50 is less than 500 nM.

As to `COc1ncc(OC)c2c(C(=O)C(=O)N3CCN(/C(=N/C#N)c4ccccc4)CC3)c[nH]c12` [AM-03], the EC50 was less than 500 nM.

As for `CN(C)S(=O)(=O)/N=C(\c1ccccc1)N1CCN(C(=O)C(=O)c2c[nH]c3ccccc23)CC1` [AM-04], the EC50 is less than 500 nM.

For the compound `CCN(CC)CC/N=C(\c1ccccc1)N1CCN(C(=O)C(=O)c2c[nH]c3c(Br)ccc(F)c23)CC1` [AM-05], the EC50 is less than 500 nM.

As for `O=C(C(=O)N1CCN(/C(=N/CCN2CCOCC2)c2ccccc2)CC1)c1c[nH]c2c(Br)ccc(F)c12` [AM-06], the EC50 was less than 500 nM.

In the case of `COc1ccc(Br)c2[nH]cc(C(=O)C(=O)N3CCN(/C(=N/S(C)(=O)=O)c4ccccc4)CC3)c12` [AM-07], the EC50 was less than 500 nM.

Turning to `O=C(C(=O)N1CCN(/C(=N/c2ccccc2)c2ccccc2)CC1)c1c[nH]c2cccc(F)c12` [AM-08, 1-(4-fluoro-1H-indol-3-yl)-2-(4-(phenyl(phenylimino)methyl)piperazin-1-yl)ethane-1,2-dione], the EC50 is less than 500 nM.

On to `CS(=O)(=O)/N=C(\c1ccccc1)N1CCN(C(=O)C(=O)c2c[nH]c3cccc(F)c23)CC1` [AM-09], for which the EC50 is less than 500 nM.

`N#C/N=C(\c1ccccc1)N1CCN(C(=O)C(=O)c2c[nH]c3c(-n4ccnn4)ncc(F)c23)CC1` [AM-10, ((4-(2-(4-fluoro-7-(1H-1,2,3-triazol-1-yl)-1H-pyrrolo[2,3-c]pyridin-3-yl)-2-oxoacetyl)piperazin-1-yl)(phenyl)methylene)cyanamide]: the EC50 is less than 500 nM.

Turning to `COc1cnc(-n2ccc(-c3ccc(C#N)cc3)n2)c2[nH]cc(C(=O)C(=O)N3CCN(/C(=N/C#N)c4ccccc4)CC3)c12` [AM-11], the EC50 is less than 500 nM.

Consider `C/N=C(\c1ccccc1)N1CCN(C(=O)C(=O)c2c[nH]c3ccccc23)CC1` [AM-12], for which the EC50 is more than 500 nM.

In the case of `CCC/N=C(\c1ccccc1)N1CCN(C(=O)C(=O)c2c[nH]c3ccccc23)CC1` [AM-13], the EC50 is more than 500 nM.

In the case of `CC(C)(C)/N=C(\c1ccccc1)N1CCN(C(=O)C(=O)c2c[nH]c3ccccc23)CC1` [AM-14], the EC50 is more than 500 nM.

For `COc1cnc(-n2cnc(C)n2)c2[nH]cc(C(=O)C(=O)N3CCN(/C(=N/C#N)c4ccccc4)CC3)c12` [AM-16], the EC50 was less than 500 nM.

As to `N#C/N=C(\c1ccccc1)N1CCN(C(=O)C(=O)c2c[nH]c3c(Br)ccc(F)c23)CC1` [AM-17], the EC50 is less than 500 nM.

Regarding `C/N=C(\c1ccccc1)N1CCN(C(=O)C(=O)c2c[nH]c3cccc(F)c23)CC1` [AM-18], the EC50 was more than 500 nM.

As to `O=C(C(=O)N1CCN(/C(=N/CCOCCO)c2ccccc2)CC1)c1c[nH]c2cccc(F)c12` [AM-19], the half-maximal effective concentration (EC50) is more than 500 nM.

`CN(C)CCC/N=C(\c1ccccc1)N1CCN(C(=O)C(=O)c2c[nH]c3cccc(F)c23)CC1` [AM-20]: the EC50 is more than 500 nM.

In the case of `O=C(C(=O)N1CCN(/C(=N/C2CC2)c2ccccc2)CC1)c1c[nH]c2cccc(F)c12` [AM-21], the EC50 is more than 500 nM.

Turning to `O=C(C(=O)N1CCN(/C(=N/c2cccnc2)c2ccccc2)CC1)c1c[nH]c2cccc(F)c12` [AM-22], the EC50 was more than 500 nM.

With `O=C(C(=O)N1CCN(/C(=N/CCN2CCOCC2)c2ccccc2)CC1)c1c[nH]c2cccc(F)c12` [AM-23], the EC50 is more than 500 nM.

For `COc1cnc(-n2ccnn2)c2[nH]cc(C(=O)C(=O)N3CCN(/C(=N/C#N)c4ccccc4)CC3)c12` [AM-24], the EC50 is less than 500 nM.

For the compound `C[C@@H]1CN(/C(=N/C#N)c2ccccc2)CCN1C(=O)C(=O)c1c[nH]c2c(-n3ccnn3)ncc(F)c12` [AM-25, (((R)-4-(2-(4-fluoro-7-(1H-1,2,3-triazol-1-yl)-1H-pyrrolo[2,3-c]pyridin-3-yl)-2-oxoacetyl)-3-methylpiperazin-1-yl)(phenyl)methylene)cyanamide], the EC50 was less than 500 nM.

As for `CN(C)S(=O)(=O)/N=C(\c1ccccc1)N1CCN(C(=O)C(=O)c2c[nH]c3cccc(F)c23)CC1` [AM-26], the EC50 is more than 500 nM.

For the compound `N#C/N=C(\c1ccccc1)N1CCN(C(=O)C(=O)c2c[nH]c3cc(F)cc(F)c23)CC1` [AM-28], the 50% effective concentration (EC50) was less than 500 nM.

`N#C/N=C(\c1ccccc1)N1CCN(C(=O)C(=O)c2c[nH]c3c(F)ccc(F)c23)CC1` [AM-30]: the EC50 was less than 500 nM.

For the compound `C[C@@H]1CN(C(=N)c2ccccc2)CCN1C(=O)C(=O)c1c[nH]c2c(-n3ccnn3)ncc(F)c12` [AM-33], the EC50 is less than 500 nM.

For `COc1cnc(-n2ccnn2)c2[nH]cc(C(=O)C(=O)N3CCN(C(=N)c4ccccc4)CC3)c12` [AM-34], the EC50 is less than 500 nM.

On to `CC(C)NC(=O)/N=C(\c1ccccc1)N1CCN(C(=O)C(=O)c2c[nH]c3cccc(F)c23)CC1` [AM-36], for which the EC50 is more than 500 nM.

Consider `CC1(C)OB(c2ccc(NC(=O)/N=C(\c3ccccc3)N3CCN(C(=O)C(=O)c4c[nH]c5cccc(F)c45)CC3)cc2)OC1(C)C` [AM-50], for which the EC50 is more than 500 nM.

On to `CCc1ncn(-c2ncc(OC)c3c(C(=O)C(=O)N4CCN(/C(=N/C#N)c5ccccc5)CC4)c[nH]c23)n1` [AM-53], for which the EC50 is less than 500 nM.

For `N=C(c1ccccn1)N1CCN(C(=O)C(=O)c2c[nH]c3c(-n4ccnn4)ncc(F)c23)CC1` [AM-54], the EC50 is less than 500 nM.

As to `COc1cnc(-n2cnc(C)n2)c2[nH]cc(C(=O)C(=O)N3CCN(C(=N)c4ccccn4)CC3)c12` [AM-55], the EC50 is less than 500 nM.

Consider `O=C(C(=O)N1CCN(/C(=N/C2CCC2)c2ccccc2)CC1)c1c[nH]c2c(-n3ccnn3)ncc(F)c12` [AM-56], for which the EC50 is less than 500 nM.

As for `CN(C)CCC/N=C(\c1ccccc1)N1CCN(C(=O)C(=O)c2c[nH]c3c(-n4ccnn4)ncc(F)c23)CC1` [AM-58], the EC50 is less than 500 nM.

Take `CC/N=C(\c1ccccc1)N1CCN(C(=O)C(=O)c2c[nH]c3c(-n4ccnn4)ncc(F)c23)CC1` [AM-59]: the EC50 was less than 500 nM.

As for `O=C(C(=O)N1CCN(/C(=N/CCOCCO)c2ccccc2)CC1)c1c[nH]c2c(-n3ccnn3)ncc(F)c12` [AM-60], the EC50 was less than 500 nM.

In the case of `O=C(C(=O)N1CCN(/C(=N/C2CCCC2)c2ccccc2)CC1)c1c[nH]c2c(-n3ccnn3)ncc(F)c12` [AM-61], the EC50 was less than 500 nM.

As to `CCCC/N=C(\c1ccccc1)N1CCN(C(=O)C(=O)c2c[nH]c3c(-n4ccnn4)ncc(F)c23)CC1` [AM-62], the EC50 is less than 500 nM.

On to `O=C(C(=O)N1CCN(/C(=N/C2CCCCC2)c2ccccc2)CC1)c1c[nH]c2c(-n3ccnn3)ncc(F)c12` [AM-63], for which the EC50 was less than 500 nM.

In the case of `CC(C)/N=C(\c1ccccc1)N1CCN(C(=O)C(=O)c2c[nH]c3c(-n4ccnn4)ncc(F)c23)CC1` [AM-64], the EC50 was less than 500 nM.

For the compound `C[C@H]1CN(/C(=N/C#N)c2ccccc2)CCN1C(=O)C(=O)c1c[nH]c2c(-n3ccnn3)ncc(F)c12` [AM-65], the EC50 is less than 500 nM.

For the compound `CC[C@@H]1CN(/C(=N/C#N)c2ccccc2)CCN1C(=O)C(=O)c1c[nH]c2c(-n3ccnn3)ncc(F)c12` [AM-66], the EC50 is less than 500 nM.

Consider `CN(C)S(=O)(=O)/N=C(\c1ccccc1)N1CCN(C(=O)C(=O)c2c[nH]c3c(-n4ccnn4)ncc(F)c23)CC1` [AM-67], for which the EC50 was less than 500 nM.

Consider `CS(=O)(=O)/N=C(\c1ccccc1)N1CCN(C(=O)C(=O)c2c[nH]c3c(-n4ccnn4)ncc(F)c23)CC1` [AM-68], for which the EC50 is less than 500 nM.

Consider `C/N=C(\c1ccccc1)N1CCN(C(=O)C(=O)c2c[nH]c3c(-n4ccnn4)ncc(F)c23)CC1` [AM-69], for which the EC50 was less than 500 nM.

With `C/N=C(\c1ccccc1)N1CCN(C(=O)C(=O)c2c[nH]c3c(-n4cnc(C)n4)ncc(OC)c23)CC1` [AM-70], the EC50 was less than 500 nM.

As to `COc1cnc(-c2cnccn2)c2[nH]cc(C(=O)C(=O)N3CCN(C(=N)c4ccccc4)C[C@H]3C)c12` [AM-71], the EC50 was less than 500 nM.

As to `COc1cnc(-c2cnccn2)c2[nH]cc(C(=O)C(=O)N3CCN(C(=N)c4ccccc4)C[C@@H]3C)c12` [AM-72], the EC50 was less than 500 nM.

In the case of `N=C(c1ccccc1)N1CCN(C(=O)C(=O)c2c[nH]c3c(Br)ccc(F)c23)CC1` [AM-73], the EC50 is less than 500 nM.

`C[C@H]1CN(/C(=N/C#N)c2ccccc2)CCN1C(=O)C(=O)c1c[nH]c2c(Br)ccc(F)c12` [AM-76]: the EC50 is less than 500 nM.
